Source: patent US20070225213A1, “Nucleic acid carriers for delivery of therapeutic agents” (priority 2006, published 2007)
Where two headings read alike, the source gives them in different places.

Legend:
NIH3T3 = assay: Effect of plating time on uptake of NAC-MTN and MTN, fluorescence (Example 11); format: cell-based, mouse; conditions: cells treated <1 hour after plating
Experimental: The effect of plating time on the differential rates of uptake between NAC-MTN and MTN were assayed in cells treated <1 hour and 24 hours after plating.
On day 1, MCF7, COS7, 3T3, and BHK21 cells were plated out in a standard tissue culture plate. After incubation of 20 minutes samples were added to cells in rows A, C, E, and G. Cells were incubated at 37C in a standard atmosphere of 5%CO2.
On day 2, samples were added to rows D, F, and H and the fluorescence was obtained EX620/EM680 S=80. Samples were removed from A,C,E and G, replaced with media and fluorescence read again. On day 2 observed significant drug toxicity in cells of rows A,C, E, G. Sample addition was postponed in row B since MCF7 were not yet confluent.
On day 3, added samples to cells in row B containing confluent MCF7's, removed samples from rows D, F, and H replaced with media and read fluorescence.
Fluorescence data from cells taken after removal of media was used to quantitate total MTN retained in the cells. Fluorescence data were converted to mg/ml MTN using a standard curve prepared with free MTN or NAC-MTN.
The percentage difference in fluorescence between cells treated with NAC-MTN or MTN alone was used to compare relative drug uptake.

COS7 = assay: Cell uptake by MTN fluorescence EX620/EM680 (Examples 10 and 13, EX051605); format: cell-based, green monkey; conditions: 10% w/w loading in DNA
Experimental: (§1) Materials: HSGDNA, MTN, ODNAS1116 (phosphorothioated, single stranded DNA, and Beta-cyclodextrin polymer (BCD-SBE, KKBIOMED Inc.) were previously prepared in water at 10 mg/ml, 1 mg/ml, 0.95 mg/ml, and 10 mg/ml respectively.
(§2) Procedure: For NAC-MTN, combined 37 ul HSGDNA (herring genomic DNA, Promega Inc.), 1426 ul HBSS( Hank's buffered saline, Sigma-Aldrich), with 37 ul of MTN, followed by 1500 ul 2× DMEM media to give 3 ml final and 24 uM (24 micro-molar) MTN and 10% w/w drug loading of MTN. For NAC-MTN (AR1505) combined 62 ul of HSDNA (deg. herring sperm DNA, Sigma) with 2377 ul HBSS, 61.7 ul MTN, 2500 ul 2× media to give 5 ml final and 24 uM MTN and 10% w/w drug loading of MTN to HSDNA. […]
(§3) Plate#1 Media was aspirated and cells treated with 100 ul of either NAC-MTN, CD-MTN, or MTN at 24 uM MTN final or 12.3 ug/ml MTN in all samples. Samples containing MTN were incubated 4 hours, removed, and fluorescence taken at EX620/EM680. […]
(§4) Samples were incubated 4 hours, removed, and MTN fluorescence taken at EX620/EM680. […] Average MTN fluorescence was averaged from 6 wells. For each cell type, MTN fluorescence was highest in MTN treated cells, followed by CD-MTN, and lowest in NAC-MTN. […]
(§5) PLATE#2: Dispensed 50 ul from source plate into plate #2 to give 150 ul final vol 4.1 ug/ml, 8 uMfinal per well, pre-read fluorescence w samples (bkgd) incubated 5 hr, removed, replaced w/ media, read fluor. […]

[1] = In vivo MTN distribution in organs after single i.v. dose (Example 15, EX102005); design: species or system mice; conditions: iv, 0.075 mg MTN per mouse i.v.
Experimental: Procedure: Prior to formulation of MTN with carrier, the DNA carrier was standardized and assayed for loading limits with MTN by absorbance spectrometry. […] Herring sperm […] […] One milliliter (1 ml) of each homogenate was then transferred to a 1.7 ml centrifuge tube and centrifuged for 10 min at 10000 rcf. Supernatants were removed and fluorescence of 0.3 ml of samples was read at 620/680 nm s=50. […] Total MTN was calculated by converting fluorescence data to mg/ml MTN using a MTN standard curve. The mg/ml MTN was then multiplied by total vol. homogenate to obtain total MTN per organ.

[2] = in vivo, iv
Experimental: Differential targeting and distribution of NAC-MTN or MTN in major organs of the mouse. NAC-MTN or MTN was administered intravenously to mice and detected in major organs after 24 hours. […] Total MTN in tissues was quantified by MTN fluorescence, normalized against total tissue weight, and reported as MTN mg/g tissue.
Mice n=2, were injected i.v. with repeated dose of either NAC-MTN or MTN alone. MTN administered was the same for each mouse.
A 0.4 ml volume of each NAC-MTN or MTN formulation was prepared for injection in HBSS or H2O (Hanks Buffered Saline, Sigma-Aldrich) as indicated below. For NAC-MTN injection, 45 ul 10 mg/ml MTN was diluted first in 325 ul of HBSS solution, then 180 ul of herring sperm DNA (HSDNA, 50 mg/ml stock neutralized, 0.2 um filtered) was added to give a turquoise blue color. […] In MTN injection, 45 ul 10 mg/ml MTN was diluted in 385 ul of H2O.
On day 1, white mice, n=2, 24 g each, were tail vein injected by a micro-catheter with 0.16 ml at 14:50 or 0.15 ml at 15:30, respectively of either NAC-MTN or MTN. A second injection was followed at 17:00 and 16:50 of 0.2 ml each of NAC-MTN or MTN. To quantify total MTN retained, mouse urine was collected after 1st and 2nd injection. Total MTN was assayed in mouse urine immediately after 1st injection and second injection by reading MTN fluorescence 620/680 s=50 of a 0.2 ml sample in a styrene well, bottom read. […] A third dose of 0.2 ml was given the next morning, 22 hours after 1st injection (day 2), of either NAC-MTN or MTN. […] Twenty four hours after first injection (day 2), mice were sacrificed and MTN assayed in major organs. The liver, kidneys, heart, and lung were homogenized at high speed 50,000 rpm, and treated with 1% SDS (sodium dodecyl sulfate). The homogenates were frozen twice and centrifuged for 30 minutes at 14000 rcf.

3T3 = assay: Cell uptake by MTN fluorescence EX620/EM680 (Examples 10 and 13, EX051605); format: cell-based, mouse; conditions: 10% w/w loading in DNA
Experimental: as §1, §2, §3, §4, §5

## O=C1c2c(O)ccc(O)c2C(=O)c2c(NCCNCCO)ccc(NCCNCCO)c21 [MTN, mitoxantrone]
NIH3T3
  FLUOR (MTN fluorescence in cells): 18530
COS7; Plate#1, 24 uM MTN, 4 hours
  % reduction in fluorescence relative to MTN alone (MTN = 0%): 0%
COS7; Plate#2, 8 uM MTN
  % reduction in fluorescence relative to MTN alone (MTN = 0%): 0%
[1]; heart, read-out: Density of MTN in tissue: Heart
  concentration at 1 h: 96000 ng/g
[1]; kidney, read-out: Density of MTN in tissue: Kidney
  concentration at 1 h: 49000 ng/g
[1]; liver, read-out: Density of MTN in tissue: Liver
  concentration at 1 h: 10000 ng/g
[1]; lung, read-out: Density of MTN in tissue: Lung
  concentration at 1 h: 43000 ng/g
[2]
  toxic effects in mouse: Neither mouse showed any toxic effects
3T3; Plate#1, 24 uM MTN, 4 hours
  % reduction in fluorescence relative to MTN alone (MTN = 0%): 0%
3T3; Plate#2, 8 uM MTN
  % reduction in fluorescence relative to MTN alone (MTN = 0%): 0%
